From PubChem BioAssay AID493102 (Broad Institute, 2011)

system: SK-MEL-5 TRPM1-promoter luciferase reporter, 24 h; test: reducers of TRPM1 reporter luminescence, concentration series – cell-based, SK-MEL-5, cherry-picked, set 4, MITF inhibitor project, dose response (AID 493102);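 note: actives lower the luciferase signal so the potency reflects inhibition of reporter expression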

Going from `Cc1cc(NC(=O)c2ccc([N+](=O)[O-])o2)ccc1NC(=O)c1ccco1` to `Cc1cc(C)cc(NC(=O)c2ccc([N+](=O)[O-])o2)c1`, the AC50 rises from 7.8 µM to 16.6 µM (2.1-fold).

Going from `N#C/C(=C\C=C\c1ccccc1[N+](=O)[O-])C(=O)NC1CCCCC1` to `O=C(CSc1ccc(Cl)cc1)NC1CCCC1`, the AC50 rises from 7.8 µM to 14.2 µM (1.8-fold).

`O=C(Cn1ncc(Cl)c(Cl)c1=O)NC1CCCCC1` and `O=C(Cn1ncc(Cl)c(Cl)c1=O)NCC1CCCCC1` are within 1.5-fold of each other in AC50: 6.82 µM for the first, 7.39 µM for the second.

First: O=C1NC(=O)C(=Cc2ccc(-c3cc(Cl)ccc3[N+](=O)[O-])o2)C(=O)N1
Second: Cc1ccc(N2C(=O)NC(=O)/C(=C/C=C/c3ccco3)C2=O)cc1
The AC50 of the first is 2.9-fold higher: 17.2 µM for the first, 5.97 µM for the second.

First: COc1cccc(-c2csc3ncnc(Sc4nnnn4C)c23)c1
Second: Cn1nnnc1Sc1ncnc2scc(-c3ccsc3)c12
The AC50 of the first is 3.1-fold higher: 25 µM for the first, 7.95 µM for the second.

Compared with `Cc1ccccc1OCc1n(CC(=O)OC2CC(C)CCC2C(C)C)c2ccccc2[n+]1C` (configuration not stated), `COc1ccc(C(=O)/C=C/C(=O)N(CC(=O)NC2CCCCC2)Cc2ccccc2OC)c(O)c1` is 1.9-fold lower in AC50: 7.52 µM for the first, 4.04 µM for the second.

`CCOc1cc(/C=C\[N+](=O)[O-])ccc1OCC(=O)N1CCOCC1` and `CCOC(=O)c1ccc(NC(=O)c2ccc(C)c(S(=O)(=O)N3CCOCC3)c2)cc1` are within 1.5-fold of each other in AC50: 7.35 µM for the first, 5.36 µM for the second.

`COc1ccc(C(=O)N/N=C/c2cc(Br)ccc2O)cc1OC` and `C#CC(=O)N(c1ccc(OC)c(OC)c1)C(C(=O)NC1CCCC1)c1cccs1` (configuration not stated) are within 1.5-fold of each other in AC50: 4.76 µM for the first, 3.31 µM for the second.

First: CCC[n+]1c(C)sc2c3c(ccc21)CCCC3
Second: O=C(O)c1ccc(Nc2nc3c(s2)CCCC3)cc1
The AC50 of the first is 1.5-fold higher: 9.87 µM for the first, 6.49 µM for the second.

Compared with `O=C(c1ccc(F)cc1)C(CN1CCOCC1)c1ccccc1` (configuration not stated), `COc1ccc(C(=O)C(CN2CCCC2)c2ccccc2)cc1` (configuration not stated) is 1.5-fold higher in AC50: 5.96 µM for the first, 9.13 µM for the second.

`CN(C)c1ccc(-n2cccc2/C=C/[N+](=O)[O-])cc1` and `O=C(Cn1cc(/C=C\[N+](=O)[O-])c2ccccc21)Nc1ccccc1` are within 1.5-fold of each other in AC50: 10.2 µM for the first, 7.46 µM for the second.

Compared with `CN(CCC#N)C(=O)COC(=O)c1ccccc1C(=O)c1ccc(Cl)c([N+](=O)[O-])c1`, `CCOC(=O)c1ccc(NC2=CC(=O)C(=O)c3ccccc32)cc1` is 2.5-fold lower in AC50: 10.9 µM for the first, 4.3 µM for the second.

Going from `CCOC(=O)N1C(=O)[C@@](CC)(c2ccccc2)N1C(=O)OCC` to `CCCN(CC(=O)Nc1ccccc1C)C(=O)CCl`, the AC50 falls from 12.5 µM to 4.04 µM (3.1-fold).

`COc1ccc2cc3cc(C(=O)NCCc4ccc(OC)c(OC)c4)oc3nc2c1` and `COc1ccc(N(Cc2cc(=O)[nH]c3ccccc23)C(=O)CCl)cc1` are within 1.5-fold of each other in AC50: 16.2 µM for the first, 10.9 µM for the second.

`COc1ccccc1OCCN1CSC(=S)N(C)C1` and `Cn1cc(C(=O)CCl)c2ccccc21` are within 1.5-fold of each other in AC50: 12.2 µM for the first, 8.48 µM for the second.

Compared with `Nc1ccc2c(c1)OC1(CCCC1)O2`, `Nc1ccc(-c2ncc(-c3ccccc3)o2)cc1` is 65-fold lower in AC50: 11.2 µM for the first, 0.171 µM for the second.

Going from `CCOc1ccc(-n2c(O)c(/C=N/Nc3nc(C)cc(C)n3)c3ccccc3c2=O)cc1` to `CCOc1ccc(-n2c(-c3ccc(OC)cc3)c[n+]3c2CCCCC3)cc1`, the AC50 falls from 3.48 µM to 2.13 µM (1.6-fold).

Compared with `FC(F)(F)c1cc(CCN2CCNC[C@@H]2Cc2ccccc2)cc(C(F)(F)F)c1`, `O=C(CCCc1ccccc1)Nc1cccc(C(=O)O)c1` is 2.8-fold lower in AC50: 12.3 µM for the first, 4.42 µM for the second.

First: CCN(Cc1ccc(OC)c(F)c1)C(=O)CCl
Second: O=C(O)c1cccc(COc2ccccc2Cl)c1
The AC50 of the first is 4.4-fold higher: 3.36 µM for the first, 0.756 µM for the second.

Going from `CCC(=O)Nc1cc2nn(-c3ccc(C)cc3)nc2cc1C` to `Cc1ccc(-c2nnc(SCC(=O)Nc3ccccc3F)o2)cc1`, the AC50 falls from 4.15 µM to 2.3 µM (1.8-fold).

`CCN1CCN(C2=C(NS(=O)(=O)c3ccc(C)cc3)C(=O)c3ccccc3C2=O)CC1` and `Cc1cc(C=C2C(=O)c3ccccc3C2=O)c(C)n1-c1ccccc1` are within 1.5-fold of each other in AC50: 4.18 µM for the first, 3.78 µM for the second.

Compared with `CCN1CCN(/C=N/c2nc3c(s2)CCCC3)CC1`, `O=C(c1ccc([N+](=O)[O-])s1)N1CCN(c2ccccn2)CC1` is 1.9-fold higher in AC50: 6.42 µM for the first, 12.2 µM for the second.

Compared with `Cn1nnnc1Sc1ncnc2scc(-c3ccc[nH]3)c12`, `COc1cnc(-c2ccccn2)nc1NC(C)C` is 1.7-fold higher in AC50: 7.32 µM for the first, 12.4 µM for the second.

First: CN(C)CCCNC(=O)/C(=C\c1ccc(-c2ccc(Br)cc2)o1)NC(=O)c1ccccc1
Second: CN(C)c1cc[n+](CC(=O)c2ccc(-c3ccccc3)cc2)cc1
The AC50 of the first is 2.9-fold higher: 7.51 µM for the first, 2.6 µM for the second.

Going from `CN1CCN(c2ccc(NC(=S)NC(=O)c3cccc4ccccc34)cc2)CC1` to `O=C(Nc1ccc(N2CCN(C(=O)c3ccccc3)CC2)cc1)c1ccc([N+](=O)[O-])o1`, the AC50 rises from 9 µM to 17.9 µM (2-fold).

Going from `O=C(O)c1cccc(NC(=S)N/N=C/c2ccccn2)c1` to `O=C(Cc1ccccc1)NCC(=O)N/N=C/c1ccc([N+](=O)[O-])s1`, the AC50 rises from 8.63 µM to 16.1 µM (1.9-fold).

Compared with `O=C(Nc1ccc(N2CCN(C(=O)c3ccc(Cl)cc3)CC2)cc1)c1ccc([N+](=O)[O-])o1`, `O=C(Nc1ccc(N2CCOCC2)cc1)c1cnsn1` is 2.4-fold lower in AC50: 7.32 µM for the first, 3.05 µM for the second.

Compared with `c1ccc2cc3c(NCCN4CCOCC4)ccnc3cc2c1`, `Cn1c(=O)c([N+](=O)[O-])c(-n2ccnc2)c2ccccc21` is 2.3-fold higher in AC50: 2.91 µM for the first, 6.6 µM for the second.

`COc1ccc2oc(C(=O)Nc3ccc(S(=O)(=O)N(C)C4CCN(C)CC4)cc3)c(C)c2c1` and `Cc1ccc2sc(N(CCCN(C)C)C(=O)c3ccc(S(=O)(=O)N(C)C4CCCCC4)cc3)nc2c1C` are within 1.5-fold of each other in AC50: 13 µM for the first, 18 µM for the second.

Going from `Cc1cc(-n2c(SCC(=O)NCCC3=CCCCC3)nc3n[nH]c(C)c3c2=N)ccc1Cl` to `Cc1ccc(C2CC(C(F)(F)F)n3nc(C(=O)NCc4c(C)nn(C)c4C)c(Cl)c3N2)cc1` (configuration not stated), the AC50 falls from 17.1 µM to 8.89 µM (1.9-fold).

Compared with `C/C(=N\NC(=O)C(c1ccccc1)c1ccccc1)c1ccccn1`, `C/C(=N\NC(=O)C(C)Oc1ccc([N+](=O)[O-])cc1)c1ccccn1` (configuration not stated) is 2.5-fold lower in AC50: 5.96 µM for the first, 2.39 µM for the second.

Compared with `CC(C)n1cc(/C=C/c2cc[n+](C)cc2)c2ccccc21`, `COc1ccc(Cn2c(-c3ccc(C)cc3)c[n+]3ccccc23)cc1` is 2.8-fold lower in AC50: 8.14 µM for the first, 2.89 µM for the second.

Compared with `Cc1ccc(C(=O)C[n+]2cc(-c3ccc(C)cc3)n3c2CCCCC3)cc1`, `O=C(N/N=C/c1cc([N+](=O)[O-])ccc1N1CCNCC1)c1ccc([N+](=O)[O-])cc1` is 2.3-fold higher in AC50: 3.63 µM for the first, 8.19 µM for the second.

Going from `N#C/C(=C(/O)c1ccc([N+](=O)[O-])o1)c1nc2ccccc2[nH]1` to `CC(C)(C)c1ccc(C(=O)Nc2ccc(CC(=O)O)cc2)o1`, the AC50 falls from 3.8 µM to 0.329 µM (12-fold).

`COc1ccc(C(=O)/C=C/C(=O)N(CC(=O)NC2CCCCC2)CC2CCCO2)c(O)c1` (configuration not stated) and `COC(=O)CCS(=O)(=O)c1nc(-c2ccccc2)cc(C(F)(F)F)n1` are within 1.5-fold of each other in AC50: 4.01 µM for the first, 5.85 µM for the second.

Going from `CCN(CC)CCC(=O)N1C/C(=C/c2ccccc2)C(=O)/C(=C\c2ccccc2)C1` to `O=S1(=O)CCC(NC(=S)SCc2ccccc2Br)C1` (configuration not stated), the AC50 rises from 4.72 µM to 25.6 µM (5.4-fold).
